Results published in patent US12157810B1 (priority 2020, dated 2024).

Tested on: cell culture

poly(alloocimene-b-isobutylene-b-alloocimene) [AIBA]
cytotoxicity in cell culture studies: non-cytotoxicity
